Measured values taken from patent US11491134B2, “Composition for inhibiting skin cell proliferation and/or anti-inflammation method for inhibiting skin cell proliferation and/or anti-inflammation and method for treating skin diseases and/or inflammatory diseases” (Industrial Technology Research Institute, priority 2019, dated 2022).

System: macrophages, RAW264.7 cells
Assay: Inhibition rate on inflammation (anti-inflammatory activity): nitric oxide, Griess reagent, LPS-treated macrophages
Type: cell-based
Conditions: Mus musculus; for inhibition at 1.5625 µM: apigenin 1.5625 μM/0.42 μg/mL; for inhibition at 3.125 µM: apigenin 3.125 μM/0.84 μg/mL; for inhibition at 6.25 µM: apigenin 6.25 μM/1.69 μg/mL; for inhibition at 12.5 µM: apigenin 12.5 μM/3.38 μg/mL; for inhibition at 25 µM: apigenin 25 μM/6.76 μg/mL; for inhibition at 50 µM: apigenin 50 μM/13.51 μg/mL; for inhibition at 0.625 µM: apigenin 0.625 μM/0.17 μg/mL; for inhibition at 1.25 µM: apigenin 1.25 μM/0.34 μg/mL; for inhibition at 2.5 µM: apigenin 2.5 μM/0.68 μg/mL; for inhibition at 5 µM: apigenin 5 μM/1.35 μg/mL; for inhibition at 10 µM: apigenin 10 μM/2.70 μg/mL; for inhibition at 0.3125 µM: apigenin 0.3125 μM/0.08 μg/mL
Experimental: Dimethyl sulfoxide (DMSO) was used as a solvent to prepare apigenin test samples with different concentrations and luteolin test samples with different concentrations. 9 batches of experiments were performed, which respectively were Batch 1 to Batch 9. There were 6 independent experiments in each batch of experiments. In each independent experiment, inhibition rate of an apigenin test sample with a specific concentration on inflammation and inhibition rate of a luteolin test sample with a specific concentration on inflammation were determined, and inhibition rate of a combination of an apigenin test sample with the said specific concentration and a luteolin test sample with the said specific concentration on inflammation was determined. Between the independent experiments, concentrations of apigenin test samples used were different, and concentrations of luteolin test samples used were also different, however, mole ratios or weight ratios of apigenin test samples to luteolin test samples were the same. Moreover, between the batches of experiments, mole ratios or weight ratios of apigenin test samples to luteolin test samples were different. 5×10^4 macrophages, RAW264.7 cells, were inoculated in a 96-well culture plate and then placed in a 37° C. and 5% CO2 incubator for culturing overnight. After overnight culture, the supernatant was removed, and lipopolysaccharide (LPS) (50 ng/mL) and a test sample was added to the cells (refer to Table 2, and the cells of the induced group were treated with lipopolysaccharide and dimethyl sulfoxide while the cells of the control group were only treated with dimethyl sulfoxide) for reaction for 24 hours. Thereafter, the supernatant of each well in the culture plate was transferred to a new culture plate and reacted with Griess reagent (Promega, Cat. No. G2930), respectively, and then the absorbance of each well of the culture plate was determined at 540 nm by a continuous wavelength microplate reader to evaluate the content of nitric oxide (NO), and anti-inflammatory activity was calculated through the following formula: Anti-inflammation=(Induced group540 nm−Experimental group540 nm)/(Induced group540 nm−Control group540 nm) In this experiment, the synergistic effects of apigenin and luteolin were evaluated by CalcuSyn software (BIOSOFT). CalcuSyn software is an analysis software which is commonly used to analyze the drug dosage effect of single drug and multiple drugs at present. CalcuSyn software can be used to analyze drug complex interactions and automatically quantify various phenomena such as synergism and inhibition. CalcuSyn software can process the data of individual drugs and combination drugs with constant-ratio or on-constant-ratio, and can evaluate the interaction of combination drugs by the combination index (CI) (Chou and Talalay, Adv. Enzyme Regul. 22:27-55 (1984) calculated by CalcuSyn software. Calculation formula for the combination index is shown in the following: Combination index=C1/IC1+C2/IC2 C1 and C2 are the respective concentrations of the first compound and the second compound at which the activity of achieving a specific physiological or medical purpose is 50% (or 75%, or 90%) when the first compound and the second compound are analyzed in combination; IC1 and IC2 are the respective concentrations at which the activity of achieving a specific physiological or medical purpose of the first compound and the second compound is 50% (or 75%, or 90%) when the first compound and the second compound are independently analyzed. […]

With `O=c1cc(-c2ccc(O)cc2)oc2cc(O)cc(O)c12` [Apigenin, apigenin] the inhibition at 1.5625 µM (RAW264.7, Batch 1) was 1.1%, the inhibition at 3.125 µM (RAW264.7, Batch 1) was 7% and the inhibition at 6.25 µM (RAW264.7, Batch 1) was 26.3%. The inhibition at 12.5 µM (RAW264.7, Batch 1) was 48.1%, the inhibition at 25 µM (RAW264.7, Batch 1) was 78.7% and the inhibition at 50 µM (RAW264.7, Batch 1) was 99.9%. For the same compound, the inhibition at 1.5625 µM (RAW264.7, Batch 2) was 2%, the inhibition at 3.125 µM (RAW264.7, Batch 2) was 16.6% and the inhibition at 6.25 µM (RAW264.7, Batch 2) was 23.7%. The inhibition at 12.5 µM (RAW264.7, Batch 2) was 32.9%, the inhibition at 25 µM (RAW264.7, Batch 2) was 74.1% and the inhibition at 50 µM (RAW264.7, Batch 2) was 99.9%. The inhibition at 1.5625 µM (RAW264.7, Batch 3) was 0.1%, the inhibition at 3.125 µM (RAW264.7, Batch 3) was 0.9% and the inhibition at 6.25 µM (RAW264.7, Batch 3) was 20.2%. The inhibition at 12.5 µM (RAW264.7, Batch 3) was 57.9%, the inhibition at 25 µM (RAW264.7, Batch 3) was 93.8% and the inhibition at 50 µM (RAW264.7, Batch 3) was 99.5%. The inhibition at 1.5625 µM (RAW264.7, Batch 4) was 0.1%, the inhibition at 3.125 µM (RAW264.7, Batch 4) was 0.1% and the inhibition at 6.25 µM (RAW264.7, Batch 4) was 12%. The inhibition at 12.5 µM (RAW264.7, Batch 4) was 45.4%, the inhibition at 25 µM (RAW264.7, Batch 4) was 93.4% and the inhibition at 50 µM (RAW264.7, Batch 4) was 99.9%. It also gave an inhibition at 1.5625 µM (RAW264.7, Batch 5) of 3.4%, an inhibition at 3.125 µM (RAW264.7, Batch 5) of 11.2% and an inhibition at 6.25 µM (RAW264.7, Batch 5) of 27.9%. The inhibition at 12.5 µM (RAW264.7, Batch 5) was 59.5%, the inhibition at 25 µM (RAW264.7, Batch 5) was 92.7% and the inhibition at 50 µM (RAW264.7, Batch 5) was 97.6%. For the same compound, the inhibition at 1.5625 µM (RAW264.7, Batch 6) was 18.9%, the inhibition at 3.125 µM (RAW264.7, Batch 6) was 7.4% and the inhibition at 6.25 µM (RAW264.7, Batch 6) was 28.9%. The inhibition at 12.5 µM (RAW264.7, Batch 6) was 59.4%, the inhibition at 25 µM (RAW264.7, Batch 6) was 97.2% and the inhibition at 50 µM (RAW264.7, Batch 6) was 99.9%. For the same compound, the inhibition at 0.625 µM (RAW264.7, Batch 7) was 0.1%, the inhibition at 1.25 µM (RAW264.7, Batch 7) was 0.1% and the inhibition at 2.5 µM (RAW264.7, Batch 7) was 3.2%. The inhibition at 5 µM (RAW264.7, Batch 7) was 30%, the inhibition at 10 µM (RAW264.7, Batch 7) was 65.3% and the inhibition at 20 µM (RAW264.7, Batch 7, apigenin 20 μM/5.40 μg/mL) was 96%. The inhibition at 0.3125 µM (RAW264.7, Batch 8) was 0.1%, the inhibition at 0.625 µM (RAW264.7, Batch 8) was 0.1% and the inhibition at 1.25 µM (RAW264.7, Batch 8) was 0.1%. It also gave an inhibition at 2.5 µM (RAW264.7, Batch 8) of 0.6%, an inhibition at 5 µM (RAW264.7, Batch 8) of 20.6% and an inhibition at 10 µM (RAW264.7, Batch 8) of 51%. The inhibition at 0.078 µM (RAW264.7, Batch 9, apigenin 0.078 μM/0.02 μg/mL) was 2%, the inhibition at 0.156 µM (RAW264.7, Batch 9, apigenin 0.156 μM/0.04 μg/mL) was 0.2% and the inhibition at 0.3125 µM (RAW264.7, Batch 9) was 10.4%. It also gave an inhibition at 0.625 µM (RAW264.7, Batch 9) of 6.5%, an inhibition at 1.25 µM (RAW264.7, Batch 9) of 6.5% and an inhibition at 2.5 µM (RAW264.7, Batch 9) of 14.9%.
